The results in this text go back to US3959363A, “15-Ethynyl-PFG2β” (American Home Products Corporation, priority 1974, dated 1976).

Assay [1] can be described thus: Hypotensive effect in the anesthetized dog, intravenous route. Type of assay: in vivo. Particulars: dose 100 μg/kg. How it is done: In the use of the compounds of the invention to produce hypotensive effects in warm-blooded animals, administration by the injectable route is preferred, preferably the intravenous route.
Thus in the anesthetized dog by the intravenous route the dose to produce hypotension is from about 1 μg/kg. to about 200 μg/kg. and preferably from about 10 μg/kg. to about 100 μg/kg. Using this procedure the following results were obtained.

The subject of assay [2] is bronchoconstricting effects of a standard dose of acetylcholine. Description: Bronchodilation upon aerosol inhalation in the guinea pig (method of Rosenthale et al.): inhibition of acetylcholine bronchoconstriction. Type of assay: in vivo. From the text: In using the compounds of the invention to produce bronchodilating effects in warm-blooded animals, they may be administered in a variety of dosage forms: oral, injectable, and aerosol inhalation. Aerosol inhalation is a preferred method because of its rapid onset of action, great potency, and specificity of action. The particular dosage to obtain the bronchodilating effect will vary with the particular compound employed, the particular animal involved, and the degree of bronchodilation desired. In the guinea pig, by aerosol inhalation, the dose to produce bronchodilation is from about 0.015 micrograms to about 50 micrograms, and preferably from about 0.015 to about 25 micrograms. The bronchodilation produced upon aerosol inhalation can be observed by the method of Rosenthale et al., J. Pharmacol. Exp. Ther., 178, 541 (1971). Using this procedure the following result was obtained.

In assay [1], `C#C[C@@](O)(/C=C/[C@@H]1[C@@H](C/C=C\CCCC(=O)O)[C@H](O)C[C@H]1O)CCCCC` [7-(2β-[(3S)-3-Ethynyl-3-Hydroxy-Trans-1-Octenyl]-3α,5β-Dihydroxy-1α-cyclopentyl)-Cis-5-Heptenoic Acid] returned a Δb.p. of -16 mm. Hg. Besides, the “Percent Inhibition of the bronchoconstricting effects of a standard dose of acetylcholine” value in assay [2] (dose 1.5 μg) was found to be 64%; in assay [2] (dose 15 μg) it was 78%.
